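Following 48 hours of exposure in 96-well plates, responses at five concentrations were used to interpolate endpoints linearly. Here, GI50 denotes the concentration required for 50% inhibition of growth. TGI marks complete inhibition of growth.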
What was measured:
Assay in all cases: NCI anticancer screen, dose series, 48 h
786-0 renal = system: 786-0 renal
A498 renal = system: A498 renal
ACHN renal = system: ACHN renal
BT-549 breast = system: BT-549 breast
CAKI-1 renal = system: CAKI-1 renal
CCRF-CEM leukemia = system: CCRF-CEM leukemia
COLO 205 colon = system: COLO 205 colon
DU-145 prostate = system: DU-145 prostate
HCC-2998 colon = system: HCC-2998 colon
HCT-116 colon = system: HCT-116 colon
HCT-15 colon = system: HCT-15 colon
HL-60(TB) leukemia = system: HL-60(TB) leukemia
HOP-62 NSCLC = system: HOP-62 NSCLC
HOP-92 NSCLC = system: HOP-92 NSCLC
HS 578T breast = system: HS 578T breast
HT29 colon = system: HT29 colon
IGROV1 ovarian = system: IGROV1 ovarian
K-562 leukemia = system: K-562 leukemia
KM12 colon = system: KM12 colon
M14 melanoma = system: M14 melanoma
MCF7 breast = system: MCF7 breast
MDA-MB-231 breast = system: MDA-MB-231 breast
MDA-MB-435 = system: MDA-MB-435
MOLT-4 leukemia = system: MOLT-4 leukemia
NCI-H226 lung = system: NCI-H226 lung
NCI-H23 lung = system: NCI-H23 lung
NCI-H460 lung = system: NCI-H460 lung
NCI-H522 lung = system: NCI-H522 lung
NCI/ADR-RES ovarian = system: NCI/ADR-RES ovarian
OVCAR-3 ovarian = system: OVCAR-3 ovarian
OVCAR-4 ovarian = system: OVCAR-4 ovarian
OVCAR-5 ovarian = system: OVCAR-5 ovarian
OVCAR-8 ovarian = system: OVCAR-8 ovarian
PC-3 prostate = system: PC-3 prostate
RPMI-8226 leukemia = system: RPMI-8226 leukemia
SF-268 CNS = system: SF-268 CNS
SF-295 CNS = system: SF-295 CNS
SF-539 CNS = system: SF-539 CNS
SK-MEL-2 melanoma = system: SK-MEL-2 melanoma
SK-MEL-28 melanoma = system: SK-MEL-28 melanoma
SK-MEL-5 melanoma = system: SK-MEL-5 melanoma
SK-OV-3 ovarian = system: SK-OV-3 ovarian
SN12C renal = system: SN12C renal
SNB-19 CNS = system: SNB-19 CNS
SNB-75 CNS = system: SNB-75 CNS
SR leukemia = system: SR leukemia
SW-620 colon = system: SW-620 colon
T-47D breast = system: T-47D breast
TK-10 renal = system: TK-10 renal
U251 CNS = system: U251 CNS
UACC-257 melanoma = system: UACC-257 melanoma
UACC-62 melanoma = system: UACC-62 melanoma
UO-31 renal = system: UO-31 renal
A549 NSCLC = system: A549 NSCLC
LOX IMVI melanoma = system: LOX IMVI melanoma
MALME-3M melanoma = system: MALME-3M melanoma
RXF 393 renal = system: RXF 393 renal

## CNCc1ccc(-c2cc(-c3nc(-c4ccc(S(=O)(=O)C(C)C)cc4)cnc3N)on2)cc1
786-0 renal
  GI50: 362 nM
  TGI: 11300 nM
A498 renal
  TGI: 2030 nM
ACHN renal
  GI50: 115 nM
  TGI: 10900 nM
BT-549 breast
  GI50: 2040 nM
  TGI: 30400 nM
CAKI-1 renal
  GI50: 2710 nM
  TGI: 21100 nM
CCRF-CEM leukemia
  GI50: 215 nM
  TGI: 3420 nM
COLO 205 colon
  GI50: 10800 nM
  TGI: 24100 nM
DU-145 prostate
  GI50: 798 nM
  TGI: 5910 nM
HCC-2998 colon
  GI50: 2480 nM
  TGI: 19600 nM
HCT-116 colon
  GI50: 1080 nM
  TGI: 2300 nM
HCT-15 colon
  GI50: 519 nM
  TGI: 2300 nM
HL-60(TB) leukemia
  GI50: 1350 nM
  TGI: 10600 nM
HOP-62 NSCLC
  GI50: 4560 nM
  TGI: 22600 nM
HOP-92 NSCLC
  GI50: 13300 nM
  TGI: 30600 nM
HS 578T breast
  GI50: 4610 nM
  TGI: 38000 nM
HT29 colon
  GI50: 492 nM
  TGI: 1830 nM
IGROV1 ovarian
  GI50: 1200 nM
  TGI: 10500 nM
K-562 leukemia
  GI50: 1050 nM
  TGI: 3610 nM
KM12 colon
  GI50: 1870 nM
  TGI: 12600 nM
M14 melanoma
  GI50: 1180 nM
  TGI: 2600 nM
MCF7 breast
  GI50: 94.6 nM
  TGI: 1820 nM
MDA-MB-231 breast
  GI50: 3800 nM
  TGI: 19600 nM
MDA-MB-435
  GI50: 1350 nM
  TGI: 2790 nM
MOLT-4 leukemia
  GI50: 376 nM
  TGI: 3070 nM
NCI-H226 lung
  GI50: 18800 nM
  TGI: 44100 nM
NCI-H23 lung
  GI50: 676 nM
  TGI: 28300 nM
NCI-H460 lung
  GI50: 322 nM
  TGI: 1600 nM
NCI-H522 lung
  GI50: 14700 nM
  TGI: 39200 nM
NCI/ADR-RES ovarian
  GI50: 3080 nM
  TGI: > 74400 nM
OVCAR-3 ovarian
  GI50: 2930 nM
  TGI: 10600 nM
OVCAR-4 ovarian
  GI50: 5050 nM
  TGI: 22800 nM
OVCAR-5 ovarian
  GI50: 4020 nM
  TGI: 21900 nM
OVCAR-8 ovarian
  GI50: 2310 nM
  TGI: 5940 nM
PC-3 prostate
  GI50: 1970 nM
  TGI: 8320 nM
RPMI-8226 leukemia
  GI50: 1310 nM
  TGI: 8450 nM
SF-268 CNS
  GI50: 1410 nM
  TGI: 3290 nM
SF-295 CNS
  GI50: 4500 nM
  TGI: 22900 nM
SF-539 CNS
  GI50: 502 nM
  TGI: 1880 nM
SK-MEL-2 melanoma
  GI50: 2000 nM
  TGI: 16400 nM
SK-MEL-28 melanoma
  GI50: 1720 nM
  TGI: 3210 nM
SK-MEL-5 melanoma
  GI50: 2590 nM
  TGI: 12300 nM
SK-OV-3 ovarian
  GI50: 6570 nM
  TGI: 24700 nM
SN12C renal
  GI50: 8580 nM
  TGI: 33400 nM
SNB-19 CNS
  GI50: 12100 nM
  TGI: 36800 nM
SNB-75 CNS
  GI50: 11400 nM
  TGI: 26400 nM
SR leukemia
  GI50: 132 nM
  TGI: 2840 nM
SW-620 colon
  GI50: 1430 nM
  TGI: 3780 nM
T-47D breast
  GI50: 15700 nM
  TGI: 37800 nM
TK-10 renal
  GI50: 10200 nM
  TGI: 22300 nM
U251 CNS
  GI50: 4930 nM
  TGI: 21500 nM
UACC-257 melanoma
  GI50: 3050 nM
  TGI: 9350 nM
UACC-62 melanoma
  GI50: 4770 nM
  TGI: 26600 nM
UO-31 renal
  GI50: 1350 nM
  TGI: 14000 nM

## COc1ccccc1CNCCN1C(=O)c2ccc3c4c(ccc(c24)C1=O)C(=O)N(CCNCc1ccccc1OC)C3=O
786-0 renal
  GI50: 187 nM
  TGI: 370 nM
A498 renal
  GI50: 1490 nM
  TGI: 2920 nM
A549 NSCLC
  GI50: 204 nM
  TGI: 470 nM
ACHN renal
  GI50: 390 nM
  TGI: 1240 nM
BT-549 breast
  GI50: 502 nM
  TGI: 1640 nM
CAKI-1 renal
  GI50: 1640 nM
  TGI: 5260 nM
CCRF-CEM leukemia
  GI50: 244 nM
COLO 205 colon
  GI50: 169 nM
  TGI: 345 nM
DU-145 prostate
  GI50: 321 nM
  TGI: 1110 nM
HCC-2998 colon
  GI50: 182 nM
  TGI: 354 nM
HCT-116 colon
  GI50: 189 nM
  TGI: 406 nM
HL-60(TB) leukemia
  GI50: 265 nM
  TGI: 607 nM
HOP-62 NSCLC
  GI50: 221 nM
  TGI: 603 nM
HOP-92 NSCLC
  GI50: 1710 nM
  TGI: 4380 nM
HS 578T breast
  GI50: 1170 nM
  TGI: 4880 nM
HT29 colon
  GI50: 215 nM
  TGI: 447 nM
IGROV1 ovarian
  GI50: 203 nM
  TGI: 549 nM
K-562 leukemia
  GI50: 234 nM
  TGI: 1090 nM
KM12 colon
  GI50: 165 nM
  TGI: 350 nM
LOX IMVI melanoma
  GI50: 168 nM
  TGI: 338 nM
M14 melanoma
  GI50: 189 nM
  TGI: 378 nM
MALME-3M melanoma
  GI50: 386 nM
  TGI: 1550 nM
MCF7 breast
  GI50: 198 nM
  TGI: 492 nM
MDA-MB-231 breast
  GI50: 277 nM
  TGI: 817 nM
MOLT-4 leukemia
  GI50: 252 nM
  TGI: 650 nM
NCI-H226 lung
  GI50: 1260 nM
  TGI: 2770 nM
NCI-H23 lung
  GI50: 190 nM
  TGI: 394 nM
NCI-H460 lung
  GI50: 208 nM
  TGI: 458 nM
NCI-H522 lung
  GI50: 137 nM
  TGI: 314 nM
NCI/ADR-RES ovarian
  GI50: 283 nM
  TGI: 831 nM
OVCAR-3 ovarian
  GI50: 207 nM
  TGI: 676 nM
OVCAR-4 ovarian
  GI50: 132 nM
  TGI: 261 nM
OVCAR-5 ovarian
  GI50: 680 nM
  TGI: 3340 nM
OVCAR-8 ovarian
  GI50: 215 nM
  TGI: 505 nM
PC-3 prostate
  GI50: 317 nM
  TGI: 963 nM
RPMI-8226 leukemia
  GI50: 287 nM
  TGI: 955 nM
RXF 393 renal
  GI50: 180 nM
  TGI: 397 nM
SF-268 CNS
  GI50: 269 nM
  TGI: 1120 nM
SF-539 CNS
  GI50: 553 nM
  TGI: 1060 nM
SK-MEL-2 melanoma
  GI50: 712 nM
  TGI: 2240 nM
SK-MEL-28 melanoma
  GI50: 1460 nM
  TGI: 2870 nM
SK-MEL-5 melanoma
  GI50: 348 nM
  TGI: 1400 nM
SK-OV-3 ovarian
  GI50: 1550 nM
  TGI: 3150 nM
SN12C renal
  GI50: 248 nM
  TGI: 701 nM
SNB-75 CNS
  GI50: 1400 nM
  TGI: 2830 nM
SR leukemia
  GI50: 178 nM
  TGI: 581 nM
SW-620 colon
  GI50: 235 nM
  TGI: 591 nM
T-47D breast
  GI50: 481 nM
  TGI: 1270 nM
TK-10 renal
  GI50: 263 nM
  TGI: 735 nM
U251 CNS
  GI50: 225 nM
  TGI: 505 nM
UACC-257 melanoma
  GI50: 196 nM
  TGI: 387 nM
UACC-62 melanoma
  GI50: 1770 nM
  TGI: 3390 nM
UO-31 renal
  GI50: 841 nM
  TGI: 2140 nM

— PubChem BioAssay (NCI)
